From PubChem BioAssay (NCI)
Several values for one entry are separate records, joined by “and”; a condition that tells them apart may be missing. Equal values may be shown once.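 Five concentrations, 48 hours, 96-well plates. GI50 = concentration required for 50% inhibition of growth. TGI: concentration producing complete growth inhibition.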

Tests used:
Test in all cases: NCI-60 cell line screen, 48 h
[1] = tested on: NCI-H23 lung
[2] = tested on: SF-268 CNS
[3] = tested on: SK-OV-3 ovarian
[4] = tested on: OVCAR-3 ovarian
[5] = tested on: COLO 205 colon
[6] = tested on: SK-MEL-5 melanoma
[7] = tested on: SNB-19 CNS
[8] = tested on: NCI-H226 lung
[9] = tested on: K-562 leukemia
[10] = tested on: SF-295 CNS
[11] = tested on: UO-31 renal
[12] = tested on: OVCAR-8 ovarian
[13] = tested on: MOLT-4 leukemia
[14] = tested on: NCI-H522 lung
[15] = tested on: U251 CNS
[16] = tested on: SN12C renal
[17] = tested on: HCT-15 colon
[18] = tested on: SW-620 colon

SMILES	TGI [1]	GI50 [2]	TGI [2]	TGI [3]	TGI [4]	TGI [5]	TGI [6]	TGI [7]	TGI [8]	TGI [9]	TGI [10]	TGI [11]	TGI [12]	TGI [13]	TGI [14]	TGI [15]	TGI [16]	GI50 [17]	TGI [17]	TGI [18]
O=C(O)/C=C/c1cnc[nH]1	> 500 µM	> 500 µM and 70 µM	> 500 µM	> 500 µM	> 500 µM	> 500 µM	> 232 µM	> 500 µM	> 500 µM	> 500 µM	> 500 µM	> 500 µM	> 500 µM	> 500 µM	> 500 µM	> 500 µM	> 500 µM	284 µM and > 500 µM	> 500 µM	> 500 µM
COc1cccc(C2C(C(=O)O)=C(CO)Oc3cc4c(cc32)OCO4)c1 (stereo unspecified)	> 100 µM		> 100 µM	> 100 µM	> 100 µM	> 100 µM	> 100 µM	> 100 µM	> 100 µM	> 100 µM	> 100 µM	> 100 µM	> 100 µM	> 100 µM	> 100 µM	> 100 µM	> 100 µM		> 100 µM	> 100 µM
COc1ccc2c(c1)O[C@H]1c3ccc(O)cc3OC[C@@H]21	86.5 µM		> 100 µM	98.9 µM	> 100 µM	57 µM	32 µM	> 100 µM	59.3 µM	> 100 µM	> 100 µM	72.6 µM	> 100 µM	55.2 µM	79.4 µM	> 100 µM	> 100 µM		> 100 µM	> 100 µM
